Reference: US20200223894A1, “PEPTIDES FOR THE TREATMENT OF CONDITIONS ASSOCIATED WITH ADIPONECTIN DYSFUNCTION” (AUCKLAND UNISERVICES LIMITED, priority 2017, published 2020)

T1: ERp44-adiponectin interaction (Mus musculus, UniProt Q9D1Q6)
T1 construct: from tissue; host or cells: adipose tissue of C57BL/6J mice on a high-fat diet, treated i.p. with the peptides
T1 sequence (Q9D1Q6 30-406): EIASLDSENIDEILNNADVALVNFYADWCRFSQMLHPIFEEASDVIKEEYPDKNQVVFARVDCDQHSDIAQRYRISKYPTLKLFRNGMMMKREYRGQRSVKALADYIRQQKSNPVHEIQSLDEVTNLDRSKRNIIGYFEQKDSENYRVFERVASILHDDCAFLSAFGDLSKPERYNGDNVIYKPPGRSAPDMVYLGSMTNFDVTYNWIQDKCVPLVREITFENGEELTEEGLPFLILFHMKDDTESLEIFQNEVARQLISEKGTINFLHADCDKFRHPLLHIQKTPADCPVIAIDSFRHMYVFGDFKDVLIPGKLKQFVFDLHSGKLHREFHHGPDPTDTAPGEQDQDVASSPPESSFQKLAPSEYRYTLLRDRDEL

T2: Recombinant mouse ERp44 (murine ERp44 without the signal sequence, monomeric fraction) (mouse, UniProt Q9D1Q6 30-406)
T2 construct: mature; Cloned into pET28b at the NheI and XhoI sites and expressed in E. coli; The monomer fraction from Superdex-200 was used; Free ERp44 is observed at 46,074 amu in ESI-MS; also called recombinant ERp44
T2 sequence (looked up): T1 sequence (Q9D1Q6 30-406)


Assays:
3T3-L1 adipocytes = assay: Adiponectin levels and oligomeric distribution in conditioned media and cell lysate of peptide-treated adipocytes (Western blotting); type: cell-based, murine; settings: for HMW adiponectin level in conditioned media / trimeric adiponectin level in conditioned media / hexamer adiponectin level in conditioned media: non-reducing SDS-PAGE; for amount of HMW adiponectin in the cell lysate / sub-population of the hexametric adiponectin in the cell lysate: compared to IgM-derived cargo peptides
Description: 3T3-L1 cells (ATCC #CL-173, Manassas, Va., USA) were cultured in Dulbecco's Modified Eagle Medium (DMEM) supplemented with 10% fetal bovine serum (FBS) and 1% penicillin-streptomycin-fungisone (PSF) at 37° C. and under 5% CO2 95% humidified air. For differentiation, the confluent 3T3-L1 cultures were supplemented with 10 μg/ml insulin, 0.25 μM dexamethasone and 0.5 mM isobutylmethylxanthine for two days, followed by incubation with 10 μg/ml insulin in the culture medium for another two days. Subsequently, cells were incubated in DMEM with 10% FBS that was changed every two days. Peptide treatment (200 nM in FBS-free medium) was performed in fully differentiated 3T3-L1 adipocyte cultures. After incubation for 24 h, cell lysates and the conditioned medium were collected for subsequent analyses.
(§1) Cells or adipose tissues were washed with phosphate buffer (137 mM NaCl, 2.7 mM KCl, 4.3 mM Na2HPO4, 1.47 mM KH2PO4, pH 7.4) and then solubilized in lysis buffer (25 mM Tris-HCl pH 7.5, 150 mM NaCl, 5 mM NaF, 1% sodium deoxycholate, 1% Nonidet P-40, 1% Triton X-100 plus protease inhibitor mixtures). Equal amounts of lysates (100 μg) were precleared with protein G (Thermo Fisher Scientific, Waltham, Mass., USA) and incubated overnight with specific antibodies at 4° C. with shaking.
(§2) After incubating with protein G for another four hours, the immune-complexes were precipitated by low-speed centrifugation, washed three times with lysis buffer, and eluted in SDS-PAGE sample buffer (50 mM Tris-HCl pH 6.8, 1% SDS, 5% glycerol, 3% β-mercaptomethanol, 0.01% bromophenal blue) or 0.1 M glycine HCl (pH 3.0) and then diluted with non-reducing sample buffer (1% SDS, 5% glycerol, 10 mM Tris-HCl pH6.8) for analyzing adiponectin monomers and oligomers by Western blotting.
Cell lysates, media or serum samples were incubated with non-reducing sample buffer at room temperature for 10 minutes and then separated by 4-20% gradient SDS-PAGE. After transferring to polyvinylidene difluoride (PVDF) membranes, immunoblotting was performed using an in-house antibody against murine adiponectin developed by Antibody and Immunoassay Services, HKU (http://www.pharma.hku.hk/sweb/antibody/PolyclonalAntibodyCont.php?polyclonal_no=60 0005), or antibodies against ERp44 (Santa Cruz Biotechnology, Santa Cruz, Calif.), DsbA-L (Abcam, Cambridge, Mass., USA). Protein bands were quantified by ImageJ and intensities were compared. All experiments were repeated at least six times.

[1] = biological target: T1, ERp44-adiponectin interaction; assay: ERp44-adiponectin interaction in mouse adipose tissue lysates by co-immunoprecipitation; type: in vivo; settings: HFD mice
Description: as §1, §2
Cell lysates, media or serum samples were incubated with non-reducing sample buffer at room temperature for 10 minutes and then separated by 4-20% gradient SDS-PAGE. […] Protein bands were quantified by ImageJ and intensities were compared. […]

[2] = tested on: C57/BL6 mice fed a high fat diet; assay: Serum total and HMW adiponectin in high fat diet mice after acute peptide injection; type: in vivo, mouse; settings: HFD mice, 10 mg/kg i.p.; for HMW form of adiponectin in serum: normalized to corresponding cargo peptide
Description: (§3) All experimental protocols were approved by the Committee on the Use of Live Animals for Teaching and Research of the University of Hong Kong and carried out in accordance with ARRIVE (Animal Research: Reporting of In Vivo Experiments) as well as institutional guidelines for the care and use of laboratory animals. Mice of the C57BL/6J background were housed in a room under controlled temperature (23±1° C.) with 12 hour light-dark cycles and free access to water and food. Mice were fed with either standard chow (STC; 3.07 kcal/g, LabDiet 5053, Purina Mills, Richmond, Ind., USA) or high-fat diet (HFD; 4.73 kcal/g containing 45% fat, 20% protein and 35% carbohydrate, D12451, Research diet, N.J., USA) starting from four-weeks old.
Immunoprecipitation and Western blotting studies were performed on serum adipose tissue samples obtained from mice as described above in Example 2. The serum was collected 24 hours after injection.
Mice were administered intraperitoneally with the peptides described in Table 2 (10 mg/kg body weight for acute studies at 16-weeks old or 5 mg/kg/day for four-week chronic treatment at 12-weeks old). Body weights of the animals were monitored on a weekly basis. Fasting blood glucose was determined after 16-hours food starvation (from 6:00 pm to 10:00 am) by a Accu-Check Advantage II Glucometer (Roche Diagnostics Mannheim, Germany). Fasting body fat mass was determined by the minispec Body Composition Analyzer (Bruker Optics Inc., Tex., USA). Circulating and tissue contents of lipids, including triglycerides and total cholesterols, were analyzed using LiquiColor® Triglycerides and Stanbio Cholesterol assay kits, respectively. Serum adiponectin concentrations were determined with an in-house ELISA kit as described (Wang et al., 2006 J Biol Chem 281: 16391-16400). Serum insulin levels were measured with an in-house mouse insulin ELISA kit (Cat No. 32100, http://www.pharma.hku.hk/sweb/antibody/ELISA.php). Homeostatic Model Assessment of […]

[3] = tested on: C57/BL6 mice fed a standard chow diet (STC) or high fat diet (HFD); assay: Four-week chronic peptide treatment of mice on STC or HFD: insulin sensitivity and energy homeostasis; type: in vivo, mouse; settings: 5 mg/kg/day i.p., four weeks; for HFD-induced hyperglycemia (fasting glucose levels): 16-hours fasting
Description: as §3
Mice were administered intraperitoneally with the peptides described in Table 2 (10 mg/kg body weight for acute studies at 16-weeks old or 5 mg/kg/day for four-week chronic treatment at 12-weeks old). Body weights of the animals were monitored on a weekly basis. Fasting blood glucose was determined after 16-hours food starvation (from 6:00 pm to 10:00 am) by a Accu-Check Advantage II Glucometer (Roche Diagnostics Mannheim, Germany). Fasting body fat mass was determined by the minispec Body Composition Analyzer (Bruker Optics Inc., Tex., USA). Circulating and tissue contents of lipids, including triglycerides and total cholesterols, were analyzed using LiquiColor® Triglycerides and Stanbio Cholesterol assay kits, respectively. Serum adiponectin concentrations were determined with an in-house ELISA kit as described (Wang et al., 2006 J Biol Chem 281: 16391-16400). Serum insulin levels were measured with an in-house mouse insulin ELISA kit (Cat No. 32100, http://www.pharma.hku.hk/sweb/antibody/ELISA.php). Homeostatic Model Assessment of
Insulin Resistance (HOMA-IR) was calculated as fasting insulin (μU/ml)×fasting glucose (mmol/L)/22.5 for comparison as described (Xu et al., 2013). All results were compared between mice treated with control and CPP peptides.

[4] = biological target: T2, Recombinant mouse ERp44 (murine ERp44 …); assay: ESI-MS of ERp44 (43 uM) incubated with 10-fold excess peptide (430 uM), 4 days, pH 6.5; disulfide-linked complex
Description: (§4) Mass spectrometry was used to quantify the amount of disulfide linkage between ERp44 and the various peptides. For this purpose, ERp44 (43 μM) was incubated with 10-fold excess (430 μM) of individual peptide. All samples were incubated for 4 days in 20 mM MES, 150 mM NaCl at pH 6.5 and subsequently subjected to mass spectrometric analyses.
(§5) The column eluate was ionized in the electrospray source of a QSTAR-XL quadrupole time-of-flight mass spectrometer (Applied Biosystems, Foster City, Calif.). A TOF-MS scan from 400 to 1600 m/z was performed. The resulting data were de-convoluted into protein molecular masses using the Bayesian Protein Reconstruct Tool within Analyst QS 1.1 (Applied Biosystems).

[5] = biological target: T2, Recombinant mouse ERp44 (murine ERp44 …); assay: ESI-MS, recombinant mouse ERp44 43 uM with 430 uM peptide, 4 days
Description: as §4, §5

[6] = 200 nM peptide, 24 h, cell lysate
[7] = 200 nM peptide, 24 h, conditioned media, vs corresponding non-CPP cargo peptide
[8] = serum 24 hours after injection, vs corresponding cargo peptide only group

binding result [4]	Molecule	intracellular adiponectin levels (3T3-L1 adipocytes; [6])	HMW adiponectin level in conditioned media (3T3-L1 adipocytes; 200 nM, conditioned media)	trimeric adiponectin level in conditioned media (3T3-L1 adipocytes; 200 nM, conditioned media)	HMW form of adiponectin in serum [2]	increase in total amount of adiponectin secreted in the media (3T3-L1 adipocytes; [7]) [%]	amount of HMW adiponectin in the cell lysate (3T3-L1 adipocytes; 200 nM, cell lysate)	sub-population of the hexametric adiponectin in the cell lysate (3T3-L1 adipocytes; 200 nM, cell lysate)	hexamer adiponectin level in conditioned media (3T3-L1 adipocytes; 200 nM, conditioned media)	HFD-induced insulin resistance (calculated HOMA-IR) [3]	HFD-induced reduction of adiponectin concentrations in serum [3]	circulating cholesterol levels [3]	circulating triglyceride levels [3]	lipid (triglyceride) accumulation in livers [3]	HFD-induced hyperglycemia (fasting glucose levels) [3]	increase in circulating concentration of adiponectin [2, 8] [%]	further results
	YGRKKRRQQRRRKGTCAGWMA [CPP-adiponectin]	increased	significantly reduced	significantly reduced	significantly decreased												reduction of total amount of adiponectin in the conditioned media (3T3-L1 adipocytes; [7]): ~16%; oligomeric composition of adiponectin in the cell lysate (3T3-L1 adipocytes; 200 nM, cell lysate): shifted towards the trimer; amount of adiponectin bound to ERp44 in mouse adipose tissue [1]: significantly decreased; decrease in circulating concentration of adiponectin [2, 8]: ~14%
	YGRKKKRRQQRRRDTGGTCY [CPP-M2]	decreased	significantly elevated	significantly elevated	increased	~53	significantly increased	decreased	significantly elevated	significantly blocked	prevented the reduction	significantly reduced	significantly reduced	attenuated	significantly blocked	~34	
	YGRKKKRRQQRRRGTCY [CPP-M1]	decreased	significantly elevated	significantly elevated	increased	~45	significantly increased	decreased	significantly elevated	significantly blocked	prevented the reduction	significantly reduced	significantly reduced	attenuated	significantly blocked	~28	body fat mass under HFD ([3]; compared to M1 cargo peptide): significantly decreased
binds	KGTCAGWMA (also called adiponectin derived peptide) [Adiponectin peptide (adiponectin-derived cargo peptide KGTCAGWMA)]																
binds	GTCY [M1 (IgM-derived cargo peptide GTCY)]																
	DTGGTCY [M2 (IgM-derived cargo peptide DTGGTCY)]																binding result [5]: binds
